Experimental data reported in patent US7960339B2, “Antimicrobial peptides” (Österreichische Akademie der Wissenschaften, priority 2006, dated 2011).
Peptide text beside a SMILES is read from it.

system: C. neoformans ATCC 32045; assay type: cell-based; conditions: ATCC 32045, 72 h
Description: C. neoformans ATCC 32045 cultures were maintained on yeast medium (YM; Difco Laboratories, Detroit, Mich.) agar plates at 4° C. Prior to the assay, the cultures were grown on agar plates and incubated for 72 hrs at 26° C. Two colonies of these newly grown fungal cultures were then inoculated in 5 ml of 2×YM broth, vortexed, and diluted 10-fold in 2×YM broth, for an approximate final assay concentration of 1×105 to 5×10^5 CFU/ml. In 96-well tissue culture plates, fungal suspensions in 2×YM broth were added to the peptides dispensed at concentrations ranging from 1 mg/ml to 1 μg/ml derived from serial twofold dilutions in sterile water. The plates were then incubated for 72 hrs at 26° C. The relative percent growth of the fungi found for each test sample was determined by the optical density at 620 nm (OD620) by using a Titertek Multiskan Plus apparatus. […] The IC50 were calculated by using a sigmoidal curve-fitting software program (Graphpad Prism; ISI Software, San Diego, Calif.).

| average IC50 [µg/mL] | average MIC [µg/mL] | SMILES |
| --- | --- | --- |
| 8 | 32 | CC[C@H](C)[C@H](NC(=O)[C@H](CCCNC(=N)N)NC(=O)[C@@H](NC(=O)[C@H](CC(N)=O)NC(=O)[C@H](CCCNC(=N)N)NC(=O)[C@H](CCC(N)=O)NC(=O)[C@H](Cc1c[nH]c2ccccc12)NC(=O)[C@@H](N)Cc1ccccc1)[C@@H](C)CC)C(=O)N[C@@H](CCCNC(=N)N)C(=O)N[C@@H](CCCNC(=N)N)C(N)=O [VS1-13, FWQRNIRIRR-NH2] (H-FWQRNIRIRR-NH2; N-terminus assumed) |
| 12 | 32 | CC[C@H](C)[C@H](NC(=O)[C@H](CCCNC(=N)N)NC(=O)[C@@H](NC(=O)[C@H](CCCNC(=N)N)NC(=O)[C@@H](N)CCCNC(=N)N)[C@@H](C)CC)C(=O)N[C@@H](CC(N)=O)C(=O)N[C@@H](CCCNC(=N)N)C(=O)N[C@@H](CCC(N)=O)C(=O)N[C@@H](Cc1c[nH]c2ccccc12)C(=O)N[C@@H](Cc1ccccc1)C(N)=O [VS1-14, RRIRINRQWF-NH2] (H-RRIRINRQWF-NH2; N-terminus assumed) |
| 13 | 32 | CC[C@H](C)[C@H](NC(=O)[C@H](CCCNC(=N)N)NC(=O)[C@H](CCCCN)NC(=O)[C@H](Cc1c[nH]c2ccccc12)NC(=O)[C@@H](N)CCCNC(=N)N)C(=O)N[C@@H](CC(N)=O)C(=O)N[C@@H](CCCNC(=N)N)C(=O)N[C@@H](CCC(N)=O)C(=O)N[C@@H](Cc1c[nH]c2ccccc12)C(=O)N[C@@H](Cc1ccccc1)C(N)=O [VS1-16, RWKRINRQWF-NH2] (H-RWKRINRQWF-NH2; N-terminus assumed) |
| 5 | 32 | CC[C@H](C)[C@H](NC(=O)[C@H](CCCNC(=N)N)NC(=O)[C@H](CCCNC(=N)N)NC(=O)[C@H](CCC(N)=O)NC(=O)[C@H](Cc1c[nH]c2ccccc12)NC(=O)[C@@H](N)Cc1ccccc1)C(=O)N[C@@H](CCCNC(=N)N)C(=O)N[C@@H](CCCCN)C(=O)N[C@@H](Cc1c[nH]c2ccccc12)C(=O)N[C@@H](CCCNC(=N)N)C(N)=O [VS1-17, FWQRRIRKWR-NH2] (H-FWQRRIRKWR-NH2; N-terminus assumed) |
| 3 | 8 | CC[C@H](C)[C@H](NC(=O)[C@H](CC(N)=O)NC(=O)[C@H](CCCNC(=N)N)NC(=O)[C@H](CCC(N)=O)NC(=O)[C@H](Cc1c[nH]c2ccccc12)NC(=O)[C@H](Cc1ccccc1)NC(=O)[C@@H]1CCCN1)C(=O)N[C@@H](CCCNC(=N)N)C(=O)N[C@@H](CCCCN)C(=O)N[C@@H](Cc1c[nH]c2ccccc12)C(=O)N[C@@H](CCCNC(=N)N)C(N)=O [VS1-19, PFWQRNIRKWR-NH2] (H-PFWQRNIRKWR-NH2; N-terminus assumed) |
| 4 | 16 | CC[C@H](C)[C@H](NC(=O)[C@H](CC(N)=O)NC(=O)[C@H](CCCNC(=N)N)NC(=O)[C@H](Cc1c[nH]c2ccccc12)NC(=O)[C@@H](N)Cc1ccccc1)C(=O)N[C@@H](CCCNC(=N)N)C(=O)N[C@@H](CCCCN)C(=O)N[C@@H](Cc1c[nH]c2ccccc12)C(=O)N[C@@H](CCCNC(=N)N)C(N)=O [VS1-20, FWRNIRKWR-NH2] (H-FWRNIRKWR-NH2; N-terminus assumed) |
| 4 | 16 | CC[C@H](C)[C@H](NC(=O)[C@H](CCCNC(=N)N)NC(=O)[C@H](Cc1c[nH]c2ccccc12)NC(=O)[C@@H](N)Cc1ccccc1)C(=O)N[C@@H](CCCNC(=N)N)C(=O)N[C@@H](CCCCN)C(=O)N[C@@H](Cc1c[nH]c2ccccc12)C(=O)N[C@@H](CCCNC(=N)N)C(N)=O [VS1-21, FWRIRKWR-NH2] (H-FWRIRKWR-NH2; N-terminus assumed) |
| 4 | 8 | CC[C@H](C)[C@H](NC(=O)[C@H](CCCNC(=N)N)NC(=O)[C@@H](NC(=O)[C@H](CCCNC(=N)N)NC(=O)[C@H](Cc1c[nH]c2ccccc12)NC(=O)[C@H](Cc1ccccc1)NC(=O)[C@@H]1CCCN1)[C@@H](C)CC)C(=O)N[C@@H](CCCNC(=N)N)C(=O)N[C@@H](CCCNC(=N)N)C(=O)N[C@@H](CC(=O)O)C(N)=O [VS1-23, PFWRIRIRRD-NH2] (H-PFWRIRIRRD-NH2; N-terminus assumed) |
| 3 | 8 | CC[C@H](C)[C@H](NC(=O)[C@H](CCCNC(=N)N)NC(=O)[C@@H](NC(=O)[C@H](CCCNC(=N)N)NC(=O)[C@H](Cc1c[nH]c2ccccc12)NC(=O)[C@H](Cc1ccccc1)NC(=O)[C@H](Cc1ccccc1)NC(=O)[C@@H]1CCCN1)[C@@H](C)CC)C(=O)N[C@@H](CCCNC(=N)N)C(=O)N[C@@H](CCCNC(=N)N)C(N)=O [VS1-24, PFFWRIRIRR-NH2] (H-PFFWRIRIRR-NH2; N-terminus assumed) |
| 6 | 32 | CC[C@H](C)[C@H](NC(=O)[C@H](CCCNC(=N)N)NC(=O)[C@H](CCC(N)=O)NC(=O)[C@H](CCCNC(=N)N)NC(=O)[C@H](Cc1c[nH]c2ccccc12)NC(=O)[C@H](Cc1ccccc1)NC(=O)[C@@H]1CCCN1)C(=O)N[C@@H](CCCNC(=N)N)C(=O)N[C@@H](CCCNC(=N)N)C(N)=O [VS1-25, PFWRQRIRR-NH2] (H-PFWRQRIRR-NH2; N-terminus assumed) |
| 6 | 32 | CC[C@H](C)[C@H](NC(=O)[C@H](CCC(N)=O)NC(=O)[C@H](CCCNC(=N)N)NC(=O)[C@H](CCCNC(=N)N)NC(=O)[C@H](Cc1c[nH]c2ccccc12)NC(=O)[C@H](Cc1ccccc1)NC(=O)[C@@H]1CCCN1)C(=O)N[C@@H](CCCNC(=N)N)C(=O)N[C@@H](CCCNC(=N)N)C(N)=O [VS1-26, PFWRRQIRR-NH2] (H-PFWRRQIRR-NH2; N-terminus assumed) |
| 8 | 32 | CC[C@H](C)[C@H](NC(=O)[C@H](CCCNC(=N)N)NC(=O)[C@H](C)NC(=O)[C@H](CCCNC(=N)N)NC(=O)[C@H](Cc1c[nH]c2ccccc12)NC(=O)[C@H](Cc1ccccc1)NC(=O)[C@@H]1CCCN1)C(=O)N[C@@H](CCCNC(=N)N)C(=O)N[C@@H](CCCNC(=N)N)C(N)=O [VS1-27, PFWRARIRR-NH2] (H-PFWRARIRR-NH2; N-terminus assumed) |
| 8 | 32 | CC[C@H](C)[C@H](NC(=O)[C@H](CCCNC(=N)N)NC(=O)[C@H](CCCCN)NC(=O)[C@H](CCCNC(=N)N)NC(=O)[C@H](Cc1c[nH]c2ccccc12)NC(=O)[C@H](Cc1ccccc1)NC(=O)[C@@H]1CCCN1)C(=O)N[C@@H](CCCNC(=N)N)C(=O)N[C@@H](CCCNC(=N)N)C(N)=O [VS1-28, PFWRKRIRR-NH2] (H-PFWRKRIRR-NH2; N-terminus assumed) |
| 9 | 32 | CC(C)C[C@H](NC(=O)[C@H](CCCNC(=N)N)NC(=O)[C@H](CCCCN)NC(=O)[C@H](CCCNC(=N)N)NC(=O)[C@H](Cc1c[nH]c2ccccc12)NC(=O)[C@H](Cc1ccccc1)NC(=O)[C@@H]1CCCN1)C(=O)N[C@@H](CCCNC(=N)N)C(=O)N[C@@H](CCCNC(=N)N)C(N)=O [VS1-29, PFWRKRLRR-NH2] (H-PFWRKRLRR-NH2; N-terminus assumed) |
| 10 | 32 | CC(C)C[C@H](NC(=O)[C@H](CCCCN)NC(=O)[C@H](CCCCN)NC(=O)[C@H](CCCNC(=N)N)NC(=O)[C@H](Cc1c[nH]c2ccccc12)NC(=O)[C@H](Cc1ccccc1)NC(=O)[C@@H]1CCCN1)C(=O)N[C@@H](CCCCN)C(=O)N[C@@H](CCCNC(=N)N)C(N)=O [VS1-30, PFWRKKLKR-NH2] (H-PFWRKKLKR-NH2; N-terminus assumed) |
| 8 | 32 | N=C(N)NCCC[C@H](NC(=O)[C@H](CCCNC(=N)N)NC(=O)[C@H](Cc1c[nH]c2ccccc12)NC(=O)[C@H](CCCNC(=N)N)NC(=O)[C@H](CCCCN)NC(=O)[C@H](CCCNC(=N)N)NC(=O)[C@H](Cc1c[nH]c2ccccc12)NC(=O)[C@H](Cc1ccccc1)NC(=O)[C@@H]1CCCN1)C(N)=O [VS1-31, PFWRKRWRR-NH2] (H-PFWRKRWRR-NH2; N-terminus assumed) |
| 9 | 32 | CC[C@H](C)[C@H](NC(=O)[C@H](CCCNC(=N)N)NC(=O)[C@H](CCCNC(=N)N)NC(=O)[C@H](CCCNC(=N)N)NC(=O)[C@H](Cc1c[nH]c2ccccc12)NC(=O)[C@H](Cc1ccccc1)NC(=O)[C@@H]1CCCN1)C(=O)N[C@@H](CCCNC(=N)N)C(=O)N[C@@H](CCCNC(=N)N)C(N)=O [VS1-32, PFWRRRIRR-NH2] (H-PFWRRRIRR-NH2; N-terminus assumed) |
| 9 | 32 | N=C(N)NCCC[C@H](NC(=O)[C@H](CCCNC(=N)N)NC(=O)[C@H](Cc1c[nH]c2ccccc12)NC(=O)[C@H](CCCNC(=N)N)NC(=O)[C@H](CCCNC(=N)N)NC(=O)[C@H](CCCNC(=N)N)NC(=O)[C@H](Cc1c[nH]c2ccccc12)NC(=O)[C@H](Cc1ccccc1)NC(=O)[C@@H]1CCCN1)C(N)=O [VS1-33, PFWRRRWRR-NH2] (H-PFWRRRWRR-NH2; N-terminus assumed) |
| 2 | 8 | CC[C@H](C)[C@H](NC(=O)[C@H](CCCNC(=N)N)NC(=O)[C@@H](NC(=O)[C@H](CCCNC(=N)N)NC(=O)[C@H](Cc1c[nH]c2ccccc12)NC(=O)[C@@H]1CCCN1)[C@@H](C)CC)C(=O)N[C@@H](CCCNC(=N)N)C(=O)N[C@@H](CCCNC(=N)N)C(N)=O [VS1-34, PWRIRIRR-NH2] (H-PWRIRIRR-NH2; N-terminus assumed) |
